Assays:
[1] = tested on: rat skin in the areas of subcutaneous administration; assay: Histopathological study of the subcutaneous administration area; format: in vivo; conditions: for histological findings in rat skin: SC 15 mg/kg of DSF
Protocol: FIGS. 3 to 10: histological cuts of rat skin in the areas of subcutaneous administration (SC), 15 mg/kg of DSF to the form of DSF physiological serum (PS) (A); Complex DSF-CD in SF (B), 25:75 Binary Mixture in SF (C) and control with SF (D). The histological were obtained at different times post-administration of each test. FIG. 3 is up to 8 hours post-administration; FIG. 4, to 24 hours post-administration; FIG. 5, at 48 hours post-administration; FIG. 6 to 72 hours post-administration; FIG. 7, 96 hours post-administration; FIG. 8, to 120 hours post-administration; FIG. 9, to 144 hours post administration and FIG. 10 corresponds to 168 hours post-administration.
The histopathological evaluation was performed for subcutaneous (SC) and intramuscular (IM) injections of DSF free, in the form of CD-DSF Complex and in the form of binary mixture in ratios of 25:75 and 40:60. water, water with 15% glycerin, miglyol and ethyl oleate were used as excipients.
15 mg/kg of free DSF, DSF Complex-CD, Mixed Binary 25:75 and physiological saline (SF) were administered subcutaneously (SC).
Comparative histological study between physiological saline and DSF in its various forms of administration are seen in FIG. 3 to No. 10.

[2] = Pharmacokinetics in rats after SC administration (plasma total DDC); conditions: rat, in vivo, 15 mg/kg
Protocol: FIG. 19: Effect of subcutaneous administration in rats, 15 mg/kg of DSF to the form of binary mixtures in water 25:75 (A); in miglyol (B) and (C) DSF free water on the concentrations Plasma total DDC in time.
In addition to the histopathological studies in rats pharmacokinetic studies were conducted that measured the plasma concentrations of metabolites of DSF (DDC and MeDDC) after administration SC (FIG. 19) and/or IM (FIG. 20), 15 mg/kg weight of DSF to the form of binary mixtures.
It was quantified the plasma concentration of total DDC that corresponds to the sum of the metabolites and MeDDC DDC, and it was used as a parameter for the analysis of the results shown below.

SMILES: CCN(CC)C(=S)SSC(=S)N(CC)CC [free DSF, 1-(diethylthiocarbamoyldisulfanyl)-N,N-diethyl-methanethioamide]
- histological findings in rat skin ([1]; 8 hours post-administration): severe hyperemia was observed in the deep vascular plexus with bleeding in hypodermis
- histological findings in rat skin ([1]; 24 hours post-administration): severe hyperemia was observed in both plexus, abundant presence of inflammatory cells and hemorrhage in hypodermis
- histological findings in rat skin ([1]; 48 hours post-administration): severe desestructuration of the collagen fibers, hyperemia of deep vascular plexus and moderate bleeding in hypodermis
- histological findings in rat skin ([1]; 72 hours post-administration): moderate hyperemia was observed in both plexus, with moderate presence of inflammatory cells and hemorrhage in hypodermis
- histological findings in rat skin ([1]; 96 hours post-administration): moderate hyperemia of deep vascular plexus, with hemorrhage in hypodermis and severe presence of inflammatory cells
- histological findings in rat skin ([1]; 120 hours post-administration): moderate hyperemia of deep vascular plexus, with slight presence of inflammatory cells and desestructuration of collagen fibers
- histological findings in rat skin ([1]; 144 hours post-administration): moderate hyperemia of deep vascular plexus and low presence of inflammatory cells
- histological findings in rat skin ([1]; 168 hours post-administration): moderate hyperemia of deep vascular plexus
- Histopathological lesions, conclusion ([1]; SC administration): severe Histopathological lesions
- desestructuration of the collagen fibers (summary) ([1]; SC, rat skin, 8, 24 and 48 hours from inoculation): mild, moderate to severe
- Hyperemia of deep vascular plexus (summary) ([1]; SC, rat skin, 8-168 hours): severe in biopsies of 8 and 24 hours and mild to moderate in subsequent checks
- presence of inflammatory cells, superficial vascular plexus hyperemia and hemorrhage in subcutis (summary) ([1]; SC, rat skin, over the controls of the study): moderate to severe
- plasma levels of active metabolites at 168 hours post-administration [2]: not detected

From patent US20110021458A1, “PHARMACEUTICAL COMPOSITIONS CONTAINING AN INCLUSION COMPLEX FORMED BY DISULFIRAM AND A CYCLODEXTRINE, WHICH CAN BE USED IN THE TREATMENT OF ALCOHOL AND COCAINE DEPENDENCE” (priority 2007, published 2011)
